System: P12-Ichikawa
Assay: cell viability relative to DMSO control; higher = less cytotoxic
Conditions: 48 h
Procedure, shortened: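 Library compounds in DMSO were pin-dosed in an 11-point threefold series (47 μM to 0.79 nM) onto leukemia cells in 1536-well plates (5 μl). Plates held 500 cells/well of NOMO1 or SEM or 1000 cells/well of P12-Ichikawa, each adapted for at least four passages in each medium. Luminescence was read with CellTiter-Glo One after 48 h at 37°C. Viability means the per-plate percentage relative to DMSO wells, using cell-free wells as background.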

[1] = HPLM + 10% dialyzed FBS, 0.000781 µM
[2] = HPLM + 10% dialyzed FBS, 0.00234 µM
[3] = HPLM + 10% dialyzed FBS, 0.00702 µM
[4] = HPLM + 10% dialyzed FBS, 0.0211 µM
[5] = HPLM + 10% dialyzed FBS, 0.0632 µM
[6] = HPLM + 10% dialyzed FBS, 0.19 µM
[7] = HPLM + 10% dialyzed FBS, 0.569 µM
[8] = HPLM + 10% dialyzed FBS, 1.71 µM
[9] = HPLM + 10% dialyzed FBS, 5.12 µM
[10] = HPLM + 10% dialyzed FBS, 15.4 µM
[11] = HPLM + 10% dialyzed FBS, 46.1 µM
[12] = RPMI 5 mM glucose + 10% FBS, 0.000781 µM
[13] = RPMI 5 mM glucose + 10% FBS, 0.00234 µM
[14] = RPMI 5 mM glucose + 10% FBS, 0.00702 µM
[15] = RPMI 5 mM glucose + 10% FBS, 0.0211 µM
[16] = RPMI 5 mM glucose + 10% FBS, 0.0632 µM
[17] = RPMI 5 mM glucose + 10% FBS, 0.19 µM
[18] = RPMI 5 mM glucose + 10% FBS, 0.569 µM
[19] = RPMI 5 mM glucose + 10% FBS, 1.71 µM
[20] = RPMI 5 mM glucose + 10% FBS, 5.12 µM
[21] = RPMI 5 mM glucose + 10% FBS, 15.4 µM
[22] = RPMI 5 mM glucose + 10% FBS, 46.1 µM
[23] = RPMI 5 mM glucose + 10% dialyzed FBS, 0.000781 µM
[24] = RPMI 5 mM glucose + 10% dialyzed FBS, 0.00234 µM
[25] = RPMI 5 mM glucose + 10% dialyzed FBS, 0.00702 µM
[26] = RPMI 5 mM glucose + 10% dialyzed FBS, 0.0211 µM
[27] = RPMI 5 mM glucose + 10% dialyzed FBS, 0.0632 µM
[28] = RPMI 5 mM glucose + 10% dialyzed FBS, 0.19 µM
[29] = RPMI 5 mM glucose + 10% dialyzed FBS, 0.569 µM
[30] = RPMI 5 mM glucose + 10% dialyzed FBS, 1.71 µM
[31] = RPMI 5 mM glucose + 10% dialyzed FBS, 5.12 µM
[32] = RPMI 5 mM glucose + 10% dialyzed FBS, 15.4 µM
[33] = RPMI 5 mM glucose + 10% dialyzed FBS, 46.1 µM

SMILES: C[C@]12CC[C@H]3[C@@H](CCC/4=C/C(=O)CC[C@]34C)[C@@H]1CC[C@@H]2O
- cell viability [1]: 111%
- cell viability [2]: 121%
- cell viability [3]: 121%
- cell viability [4]: 126%
- cell viability [5]: 128%
- cell viability [6]: 124%
- cell viability [7]: 128%
- cell viability [8]: 132%
- cell viability [9]: 126%
- cell viability [10]: 125%
- cell viability [11]: 127%

SMILES: O=C\1N(N\C=C1[N]2C=CN=N2)C3=NC=NC(=C3)N4CCOCC4
- cell viability [1]: 78.4%
- cell viability [2]: 81.7%
- cell viability [3]: 76.7%
- cell viability [4]: 82.8%
- cell viability [5]: 56.6%
- cell viability [6]: 32.5%
- cell viability [7]: 18.6%
- cell viability [8]: 20.6%
- cell viability [9]: 19.2%
- cell viability [10]: 15.9%
- cell viability [11]: 8.11%
- cell viability [12]: 68.7%
- cell viability [13]: 82.9%
- cell viability [14]: 76.4%
- cell viability [15]: 81%
- cell viability [16]: 74.8%
- cell viability [17]: 46.8%
- cell viability [18]: 13.4%
- cell viability [19]: 30.9%
- cell viability [20]: 16.8%
- cell viability [21]: 15.2%
- cell viability [22]: 11.9%
- cell viability [23]: 74.2%
- cell viability [24]: 83.1%
- cell viability [25]: 78.1%
- cell viability [26]: 78.6%
- cell viability [27]: 72.2%
- cell viability [28]: 47.2%
- cell viability [29]: 34.4%
- cell viability [30]: 38.9%
- cell viability [31]: 20.8%
- cell viability [32]: 26.8%
- cell viability [33]: 17%

SMILES: CC[C@@]1(O)C(=O)OCC/2=C1/C=C3\N(CC4=CC5=CC(=CC=C5N=C34)O)C2=O
- cell viability [12]: 122%
- cell viability [13]: 120%
- cell viability [14]: 117%
- cell viability [15]: 91.5%
- cell viability [16]: 11.4%
- cell viability [17]: 9.55%
- cell viability [18]: 8.05%
- cell viability [19]: 7.2%
- cell viability [20]: 6.2%
- cell viability [21]: 5.86%
- cell viability [22]: 6.96%
- cell viability [23]: 115%
- cell viability [24]: 127%
- cell viability [25]: 106%
- cell viability [26]: 88.7%
- cell viability [27]: 16.9%
- cell viability [28]: 12.1%
- cell viability [29]: 10.2%
- cell viability [30]: 6.53%
- cell viability [31]: 6.88%
- cell viability [32]: 6.54%
- cell viability [33]: 8.98%

SMILES: COC(=O)C1C2CC3c4[nH]c5cc(OC)ccc5c4CCN3CC2CC(OC(=O)c2cc(OC)c(OC)c(OC)c2)C1OC (stereo unspecified)
- cell viability [1]: 106%
- cell viability [2]: 109%
- cell viability [3]: 112%
- cell viability [4]: 107%
- cell viability [5]: 115%
- cell viability [6]: 111%
- cell viability [7]: 101%
- cell viability [8]: 105%
- cell viability [9]: 110%
- cell viability [10]: 107%
- cell viability [11]: 102%
- cell viability [12]: 115%
- cell viability [13]: 120%
- cell viability [14]: 121%
- cell viability [15]: 114%
- cell viability [16]: 107%
- cell viability [17]: 109%
- cell viability [18]: 118%
- cell viability [19]: 112%
- cell viability [20]: 111%
- cell viability [21]: 113%
- cell viability [22]: 91%
- cell viability [23]: 121%
- cell viability [24]: 106%
- cell viability [25]: 119%
- cell viability [26]: 114%
- cell viability [27]: 104%
- cell viability [28]: 113%
- cell viability [29]: 105%
- cell viability [30]: 106%
- cell viability [31]: 107%
- cell viability [32]: 99.5%
- cell viability [33]: 102%

SMILES: NCCCCNCCCN
- cell viability [1]: 108%
- cell viability [2]: 108%
- cell viability [3]: 115%
- cell viability [4]: 108%
- cell viability [5]: 110%
- cell viability [6]: 121%
- cell viability [7]: 115%
- cell viability [8]: 116%
- cell viability [9]: 109%
- cell viability [10]: 104%
- cell viability [11]: 41.4%
- cell viability [12]: 110%
- cell viability [13]: 109%
- cell viability [14]: 113%
- cell viability [15]: 114%
- cell viability [16]: 114%
- cell viability [17]: 118%
- cell viability [18]: 123%
- cell viability [19]: 118%
- cell viability [20]: 105%
- cell viability [21]: 73.7%
- cell viability [22]: 3.31%
- cell viability [23]: 101%
- cell viability [24]: 102%
- cell viability [25]: 98.4%
- cell viability [26]: 116%
- cell viability [27]: 104%
- cell viability [28]: 111%
- cell viability [29]: 115%
- cell viability [30]: 111%
- cell viability [31]: 115%
- cell viability [32]: 87%
- cell viability [33]: 6.5%

SMILES: C=CCc1cccc(/C=N/NC(=O)CN2CCN(Cc3ccccc3)CC2)c1O
- cell viability [1]: 120%
- cell viability [2]: 115%
- cell viability [3]: 119%
- cell viability [4]: 118%
- cell viability [5]: 116%
- cell viability [6]: 117%
- cell viability [7]: 117%
- cell viability [8]: 106%
- cell viability [9]: 97%
- cell viability [10]: 64.2%
- cell viability [11]: 7.9%
- cell viability [12]: 110%
- cell viability [13]: 102%
- cell viability [14]: 113%
- cell viability [16]: 110%
- cell viability [17]: 113%
- cell viability [18]: 108%
- cell viability [19]: 108%
- cell viability [20]: 94.5%
- cell viability [21]: 52.9%
- cell viability [22]: 17.1%
- cell viability [23]: 109%
- cell viability [24]: 99.7%
- cell viability [25]: 109%
- cell viability [26]: 114%
- cell viability [27]: 109%
- cell viability [28]: 101%
- cell viability [29]: 112%
- cell viability [30]: 102%
- cell viability [31]: 87.5%
- cell viability [32]: 44.8%
- cell viability [33]: 13.5%

SMILES: CN1\N=C(N)/C2=C[N]([C@@H]3O[C@H](CO[P](O)(O)=O)[C@@H](O)[C@H]3O)C4=C2C1=NC=N4
- cell viability [1]: 112%
- cell viability [2]: 122%
- cell viability [3]: 110%
- cell viability [4]: 109%
- cell viability [5]: 111%
- cell viability [6]: 96.1%
- cell viability [7]: 77.9%
- cell viability [8]: 53%
- cell viability [9]: 54%
- cell viability [10]: 43.2%
- cell viability [11]: 37.9%
- cell viability [12]: 114%
- cell viability [13]: 110%
- cell viability [14]: 105%
- cell viability [15]: 95.1%
- cell viability [16]: 93.9%
- cell viability [17]: 75.5%
- cell viability [18]: 72%
- cell viability [19]: 60.6%
- cell viability [20]: 52.7%
- cell viability [21]: 44.7%
- cell viability [22]: 41.4%
- cell viability [23]: 119%
- cell viability [24]: 114%
- cell viability [25]: 108%
- cell viability [26]: 113%
- cell viability [27]: 101%
- cell viability [28]: 89.4%
- cell viability [29]: 72.3%
- cell viability [30]: 60.4%
- cell viability [31]: 58.3%
- cell viability [32]: 51%
- cell viability [33]: 41.4%

SMILES: CCC(=O)N[C@H]1CC[C@H](C(=O)N(C)c2ccc(-c3nc4ccccc4o3)cc2)C1
- cell viability [1]: 95.4%
- cell viability [2]: 97.1%
- cell viability [3]: 101%
- cell viability [4]: 102%
- cell viability [5]: 100%
- cell viability [6]: 99.5%
- cell viability [7]: 110%
- cell viability [8]: 103%
- cell viability [9]: 107%
- cell viability [10]: 104%
- cell viability [11]: 84.4%
- cell viability [12]: 92.3%
- cell viability [13]: 95.4%
- cell viability [14]: 96.4%
- cell viability [15]: 91.3%
- cell viability [16]: 101%
- cell viability [17]: 105%
- cell viability [18]: 108%
- cell viability [19]: 95.6%
- cell viability [20]: 97.5%
- cell viability [21]: 100%
- cell viability [22]: 54.8%
- cell viability [23]: 89.9%
- cell viability [24]: 92.2%
- cell viability [25]: 91.5%
- cell viability [26]: 98.3%
- cell viability [27]: 94%
- cell viability [28]: 99.7%
- cell viability [29]: 98.2%
- cell viability [30]: 109%
- cell viability [31]: 99%
- cell viability [32]: 94.6%
- cell viability [33]: 65.1%

SMILES: CC(C)c1cnn2c(NCc3ccccc3)cc(NCCCCCCN)nc12
- cell viability [1]: 110%
- cell viability [2]: 124%
- cell viability [3]: 131%
- cell viability [4]: 125%
- cell viability [5]: 122%
- cell viability [6]: 127%
- cell viability [7]: 116%
- cell viability [8]: 113%
- cell viability [9]: 116%
- cell viability [10]: 110%
- cell viability [11]: 76.8%

— the supplement of paper PMC11451515
